Assay results taken from US9045248B2 (priority 2007, dated 2015).

Target: wild-type cap-binding domain of PB2 (Influenza A virus, UniProt P31345, R389K)
Parameters: species or system Influenza A/Victoria/3/1975(H3N2)

| SMILES | Kd [µM] |
| --- | --- |
| Nc1nc2c(ncn2[C@@H]2O[C@H](COP(=O)(O)OP(=O)(O)OP(=O)(O)O)[C@@H](O)[C@H]2O)c(=O)[nH]1 [GTP] | 1020 ± 100 |
| C[n+]1cn([C@@H]2O[C@H](COP(=O)(O)OP(=O)(O)OP(=O)(O)O)[C@@H](O)[C@H]2O)c2nc(N)[nH]c(=O)c21 [m^7GTP, 7-methyl-guanosine triphosphate] | 177 ± 34 |
